Active and inactive are the calls of the source. For most assays here, no stated cut-off is given here; in the data, actives have a measured EC50 and inactives only a lower limit.
Columns and labels:
H9c2 = assay: cells; format: functional, cell-based; settings: Rattus norvegicus, H9c2, Myocardium;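 further: confirmatory concentration-response retest of ultra-high-throughput screening hits for modulation of myocardial damage; cell death induced by hydrogen peroxide oxidative stress; compound pretreatment for 60 min then peroxide exposure for 2 h; potency is for protecting the cells against peroxide damage rather than for killing them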
[1] = fluconazole-exposed Candida albicans growth modulators – fluorescence, retest, confirmation (AID 2467); format: functional, cell-based
[2] = NIH-3T3 fibroblast cytotoxicity, dose response, cytotoxicity control, cell-based, fluorescence, Alamar Blue, secondary assay (AID 2327); format: functional;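 further: NIH-3T3 mouse fibroblasts cultured with fluconazole at 8 µg/mL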
Protein skinhead-1 = molecular target: T1, Protein skinhead-1 (Caenorhabditis elegans, UniProt P34707); format: functional
T1 sequence (P34707 whole entry): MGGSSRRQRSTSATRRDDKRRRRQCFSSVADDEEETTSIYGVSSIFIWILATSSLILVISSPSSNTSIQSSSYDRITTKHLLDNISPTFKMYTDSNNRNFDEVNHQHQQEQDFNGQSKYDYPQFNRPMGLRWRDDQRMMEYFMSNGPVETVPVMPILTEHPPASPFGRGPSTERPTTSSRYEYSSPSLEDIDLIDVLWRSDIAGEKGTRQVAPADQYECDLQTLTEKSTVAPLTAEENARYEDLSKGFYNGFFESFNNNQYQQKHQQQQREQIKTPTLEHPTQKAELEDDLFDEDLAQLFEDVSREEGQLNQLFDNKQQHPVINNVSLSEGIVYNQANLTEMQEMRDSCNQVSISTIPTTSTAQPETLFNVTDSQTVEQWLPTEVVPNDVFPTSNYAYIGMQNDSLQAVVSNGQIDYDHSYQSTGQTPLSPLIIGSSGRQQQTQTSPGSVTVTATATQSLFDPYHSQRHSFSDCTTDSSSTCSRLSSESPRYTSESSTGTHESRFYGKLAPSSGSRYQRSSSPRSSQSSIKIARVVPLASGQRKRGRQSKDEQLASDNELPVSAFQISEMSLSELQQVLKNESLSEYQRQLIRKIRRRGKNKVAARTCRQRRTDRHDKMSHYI

[3] = molecular target: Luciferin 4-monooxygenase (Photinus pyralis, UniProt P08659); assay: inhibition of purified Photinus pyralis luciferase – biochemical, luminescence, dose response (AID 1891)
Chain of Luciferin 4-monooxygenase (P08659 whole entry): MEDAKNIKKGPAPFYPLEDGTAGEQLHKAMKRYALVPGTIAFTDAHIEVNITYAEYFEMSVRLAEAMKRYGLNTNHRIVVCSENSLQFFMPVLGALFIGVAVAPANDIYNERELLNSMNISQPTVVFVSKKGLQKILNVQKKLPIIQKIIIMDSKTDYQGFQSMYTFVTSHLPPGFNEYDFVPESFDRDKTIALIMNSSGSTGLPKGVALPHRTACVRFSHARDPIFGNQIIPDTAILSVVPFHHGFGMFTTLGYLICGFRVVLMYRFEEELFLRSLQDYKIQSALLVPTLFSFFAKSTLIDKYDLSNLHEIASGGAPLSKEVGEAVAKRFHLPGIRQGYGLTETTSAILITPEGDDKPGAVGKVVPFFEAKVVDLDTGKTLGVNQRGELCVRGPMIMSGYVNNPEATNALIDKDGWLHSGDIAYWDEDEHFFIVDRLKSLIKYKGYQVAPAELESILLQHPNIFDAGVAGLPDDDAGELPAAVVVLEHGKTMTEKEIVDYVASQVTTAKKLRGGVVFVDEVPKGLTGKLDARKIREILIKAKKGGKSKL

[4] = Luminescence Cell-Based Dose Confirmation HTS to Identify Inhibitors of Platelet Dense Granule Release. [Related pubchem assays: 1663 (Primary HTS), 1678 (Summary of Project)]; format: functional
[5] = molecular target: T2, Corticotropin-releasing factor receptor 2/Corticotropin-releasing factor-binding protein (Homo sapiens, UniProt P24387+Q13324); assay: activators of CRF receptor 2 with binding protein – uHTS hits, confirmation (AID 602473); format: functional; settings: read-out: EC50_Mean
T2 sequence (Q13324 whole entry): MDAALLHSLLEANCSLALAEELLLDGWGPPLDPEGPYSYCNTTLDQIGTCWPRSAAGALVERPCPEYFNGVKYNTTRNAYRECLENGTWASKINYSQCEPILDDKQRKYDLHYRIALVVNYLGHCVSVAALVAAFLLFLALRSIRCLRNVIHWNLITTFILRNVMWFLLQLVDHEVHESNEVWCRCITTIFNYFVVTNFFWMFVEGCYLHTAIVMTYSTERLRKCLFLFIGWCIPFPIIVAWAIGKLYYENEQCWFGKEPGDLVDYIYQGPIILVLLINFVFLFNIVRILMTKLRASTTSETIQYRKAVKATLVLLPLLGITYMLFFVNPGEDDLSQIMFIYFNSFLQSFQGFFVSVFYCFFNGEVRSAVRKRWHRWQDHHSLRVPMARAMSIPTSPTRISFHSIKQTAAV
T2 sequence (P24387 whole entry): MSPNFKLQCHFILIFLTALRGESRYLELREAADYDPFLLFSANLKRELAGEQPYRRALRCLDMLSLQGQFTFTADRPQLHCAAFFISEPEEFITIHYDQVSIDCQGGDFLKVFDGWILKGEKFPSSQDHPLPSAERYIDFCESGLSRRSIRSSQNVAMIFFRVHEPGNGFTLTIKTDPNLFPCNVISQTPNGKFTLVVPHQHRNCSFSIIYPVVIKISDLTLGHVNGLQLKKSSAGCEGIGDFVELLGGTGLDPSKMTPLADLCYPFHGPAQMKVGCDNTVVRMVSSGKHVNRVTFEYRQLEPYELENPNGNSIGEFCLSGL

[6] = molecular target: T2, Corticotropin-releasing factor receptor 2/Corticotropin-releasing factor-binding protein; assay: Dose Response confirmation of uHTS hits for small molecule antagonists of the CRF-binding protein and CRF-R2 receptor complex.; format: functional; settings: read-out: IC50_Mean
Cytochrome P450 2D6 = Cytochrome P450 2D6 (Homo sapiens, UniProt P10635);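 further: CYP2D6 member of a cytochrome P450 panel assay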
Chain of Cytochrome P450 2D6 (P10635 whole entry): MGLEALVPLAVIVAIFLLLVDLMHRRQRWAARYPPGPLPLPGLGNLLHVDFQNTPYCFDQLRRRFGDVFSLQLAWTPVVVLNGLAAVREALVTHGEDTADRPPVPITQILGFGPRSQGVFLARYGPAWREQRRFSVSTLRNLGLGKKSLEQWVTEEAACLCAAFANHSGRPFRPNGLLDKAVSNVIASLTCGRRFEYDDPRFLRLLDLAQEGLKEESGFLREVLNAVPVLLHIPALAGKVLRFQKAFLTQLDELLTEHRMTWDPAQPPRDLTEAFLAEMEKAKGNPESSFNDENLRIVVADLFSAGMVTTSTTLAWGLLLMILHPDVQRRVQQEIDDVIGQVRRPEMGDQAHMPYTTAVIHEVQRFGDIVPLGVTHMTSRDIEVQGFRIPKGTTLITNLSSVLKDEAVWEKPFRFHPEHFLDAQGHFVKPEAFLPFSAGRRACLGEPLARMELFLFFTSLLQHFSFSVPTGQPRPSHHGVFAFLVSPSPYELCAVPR

[7] = viability of uninfected HEp-2 cells – cell-based, HTS, cytotoxicity control for RSV inhibitor project, dose response (AID 2410); format: functional; settings: human respiratory syncytial virus
[8] = luciferase reporter signal suppression in cells – H4 neuroglioma cells, luminescence, dose response (AID 1990); format: functional, cell-based
[9] = Luminescence Cell-Based Dose Response HTS to Identify Inhibitors of 5'UTR Stem-Loop Driven Prion Protein mRNA Translation in H4 Neuroglioblastoma Cells. [Related pubchem assays: 1827 (Project Summary), 1813 (Primary HTS)]; format: functional
[10] = alpha-synuclein stem-loop luciferase translation blockers – H4 neuroglioma cells, luminescence, confirmation (AID 1988); format: functional, cell-based
[11] = NIH3T3 cell viability loss – ATP luminescence, mouse fibroblasts, counter-screen, dose response (AID 2010); format: functional, cell-based;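 further: cells exposed to compound for about 90 hours before reading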
[12] = Trypanosoma cruzi growth suppression in host cells – NIH3T3 host cells, beta-gal luminescence, confirmation (AID 2044); format: functional, cell-based;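 further: intracellular parasites grown in NIH/3T3 mouse fibroblasts as host cells; luminescent beta-galactosidase reporter signal from transgenic T. cruzi replicating inside host cells; inhibitors lower the luminescence signal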
[13] = molecular target: T3, Heat shock factor protein 1 (Mus musculus, UniProt P38532); assay: enhancement of HSF1-driven luciferase signal – cell-based, NIH3T3, luminescence, dose retest, confirmation (AID 435004); format: functional;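 further: stress induced by proteasome inhibitor MG132 added 30 min after compound; luciferase reporter driven by HSF1 response element in NIH3T3 cells; actives raise luminescence as potentiators of the MG132 stress response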
T3 sequence (P38532 whole entry): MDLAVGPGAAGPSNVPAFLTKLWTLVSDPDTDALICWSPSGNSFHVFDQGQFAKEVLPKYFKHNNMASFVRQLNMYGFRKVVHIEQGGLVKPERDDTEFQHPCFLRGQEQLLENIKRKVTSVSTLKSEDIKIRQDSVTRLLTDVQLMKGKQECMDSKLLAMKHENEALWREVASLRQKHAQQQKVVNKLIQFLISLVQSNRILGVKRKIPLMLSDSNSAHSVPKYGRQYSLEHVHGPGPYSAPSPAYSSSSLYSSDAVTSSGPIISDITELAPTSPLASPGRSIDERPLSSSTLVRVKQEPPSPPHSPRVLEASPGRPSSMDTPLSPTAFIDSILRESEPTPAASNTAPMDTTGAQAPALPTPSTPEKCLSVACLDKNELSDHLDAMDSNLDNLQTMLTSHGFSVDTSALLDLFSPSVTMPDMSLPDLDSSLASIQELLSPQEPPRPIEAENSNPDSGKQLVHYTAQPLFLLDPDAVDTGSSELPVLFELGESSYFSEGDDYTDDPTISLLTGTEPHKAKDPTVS

Cc1sc2nc(CSCC(=O)N(C)c3ccccc3)nc(O)c2c1C
IC50 (H9c2): > 79 µM (inactive)

Cc1cc(C(=O)Nc2ccccc2C(=O)O)ccc1NC(=O)COc1cccc([N+](=O)[O-])c1
EC50 [1]: 3.79 µM (active)
EC50 [2]: 22.8 µM (inconclusive)

CCOC(=O)C1=C(NC(=O)c2ccc(S(=O)(=O)N(C)C)cc2)Nc2ccccc2N=C1CC
IC50 (H9c2): > 79 µM (inactive)

CC1CCN(c2oc(-c3ccccc3F)nc2C#N)CC1
IC50 (Protein skinhead-1): > 100 µM (inactive)

COc1ccc(NC(=O)c2cc(S(=O)(=O)N3CCc4ccccc43)cn2C)cc1
EC50 [3]: > 112 µM (not active)
EC50 [4]: > 112 µM (not active)

CCOC(=O)C1(CC2CCCCO2)CCN(Cc2nccn2-c2ccc(OC)cc2)CC1 (centres undefined)
EC50 [5]: > 53 µM (inactive)
IC50 [6]: > 47.1 µM (inactive)

CC(=O)N1CCN(c2ccc(NC(=O)c3ccc(C(C)(C)C)cc3)cc2)CC1
EC50 [1]: 7.14 µM (active)
EC50 [2]: > 160 µM (inactive)

CC(=O)Nc1cc(C(N)=O)c(Cl)cc1Cl
EC50 [5]: > 53 µM (inactive)
IC50 [6]: > 47.1 µM (inactive)

CCCCN(C(=O)C1CC(=O)N(c2ccc(OC)cc2OC)C1)c1c(N)n(CC(C)C)c(=O)[nH]c1=O (centres undefined)
EC50 [3]: > 112 µM (not active)
EC50 [4]: 17.5 µM (active)

Cn1c(=O)c2c(nc(NCc3cccnc3)n2Cc2cccc(C(F)(F)F)c2)n(C)c1=O
IC50 (H9c2): 14 µM (active)

CSCCC1NC(=O)N(CC(=O)Nc2ccc(Br)cc2Br)C1=O (centres undefined)
EC50 [3]: > 112 µM (not active)
EC50 [4]: > 112 µM (not active)

O=c1c2ccccc2nc(/C=C/c2ccc(F)cc2)n1-c1ccccn1
EC50 [3]: > 112 µM (not active)
EC50 [4]: > 112 µM (not active)

CC(C)(C)OC(=O)N1CCC(NC(=O)c2[nH]cnc2C(=O)NCC(=O)OCc2ccccc2)CC1
IC50 (H9c2): 47 µM (inactive)

CCC(=O)N1CCN(c2ccccc2NC(=O)c2ccc(-c3cccc([N+](=O)[O-])c3)o2)CC1
IC50 (H9c2): > 79 µM (inactive)

Cc1onc(-c2c(Cl)cccc2Cl)c1C(=O)N1CCc2ccccc2C1
EC50 [3]: > 112 µM (not active)
EC50 [4]: > 112 µM (not active)
AC50 (Cytochrome P450 2D6): 22.4 µM (inconclusive)

CCCc1nc2sc3c(O)ncnc3c2c2c1CCCC2
EC50 [3]: > 112 µM (not active)
EC50 [4]: > 112 µM (not active)

Cc1ccc(NC(=O)c2cccs2)cc1NC(=O)c1ccco1
IC50 (Protein skinhead-1): > 100 µM (inactive)

CC(=O)Nc1ccc(S(=O)(=O)N2CCC(NC(C)=O)(c3cccc(F)c3)CC2)cc1
EC50 [5]: > 53 µM (inactive)
IC50 [6]: > 47.1 µM (inactive)

Cc1cccc(-n2c(SCc3cc(=O)n4ccsc4n3)nc3ccccc3c2=O)c1
CC50 [7]: 39.5 µM (active)
IC50 (H9c2): > 79 µM (inactive)

O=C(NCc1ccncc1)/C(=C/c1cccc([N+](=O)[O-])c1)NC(=O)c1ccccc1
EC50 [3]: > 112 µM (not active)
EC50 [4]: > 112 µM (not active)

O=C(COC(=O)c1ccc(Cl)nc1)Nc1ccc2ccccc2c1
IC50 (Protein skinhead-1): > 100 µM (inactive)

COc1ccccc1-n1c(C)cc(SC)c(C(C)=O)c1=S
EC50 [1]: 14 µM (active)
EC50 [2]: > 150 µM (inactive)

Cc1ccc(NC(=O)/C(C#N)=C/c2cn(CC(=O)NCc3ccco3)c3ccccc23)cc1C
EC50 [5]: > 53 µM (inactive)
IC50 [6]: > 47.1 µM (inactive)

Cc1ccc(NC(=O)Nc2cccc(Cl)c2)c(C(=O)O)c1
EC50 [3]: 17.2 µM (active)
EC50 [4]: > 112 µM (not active)

CC(C)n1c(N2CCN(C(=O)Nc3ccc(Cl)cc3)CC2)nc2ccccc21
EC50 [1]: > 38 µM (not active)
EC50 [2]: 140 µM (active)

O=S(=O)(NCCc1csc(-c2cccnc2)n1)c1ccc2c(c1)OCCO2
EC50 [3]: > 112 µM (not active)
EC50 [8]: > 120 µM (not active)
EC50 [4]: > 112 µM (not active)
EC50 [9]: 16.4 µM (active)
EC50 [10]: > 120 µM (not active)

Cc1ccccc1[S+]([O-])Cc1ccc(C(=O)N2CCN(C(=O)c3ccco3)CC2)o1 (centres undefined)
IC50 (Protein skinhead-1): > 100 µM (inactive)

Cc1nc2sccn2c(=O)c1S(=O)(=O)N1CCN(c2ccc(F)cc2)CC1
EC50 [3]: > 112 µM (not active)
EC50 [4]: > 112 µM (not active)

COc1cc2nc(SCc3ccc(Cl)cc3Cl)n(Cc3cccs3)c(=N)c2cc1OC
EC50 [11]: > 60 µM (inconclusive)
EC50 [1]: > 38 µM (not active)
EC50 [2]: > 160 µM (inactive)
EC50 [12]: 2.09 µM (active)

CN(CC(=O)NCc1ccc(F)cc1)S(=O)(=O)c1ccc(Br)s1
EC50 [5]: > 53 µM (inactive)
IC50 [6]: > 47.1 µM (inactive)

O=C1c2ccccc2C(=O)c2c1ccc(C(=O)N1CCCCC1)c2NCCO
IC50 (Protein skinhead-1): > 100 µM (inactive)

CCc1ccc(NC(=O)c2cc(-c3ccco3)on2)cc1
IC50 (Protein skinhead-1): > 100 µM (inactive)

O=C(NCCO)c1c(O)c2cccc3c2n(c1=O)CC3
EC50 [5]: > 53 µM (inactive)
IC50 [6]: > 47.1 µM (inactive)

C=CCn1c(Oc2ccccc2)nc2c1c(=O)n(C)c(=O)n2C
EC50 [5]: > 53 µM (inactive)

Cc1ccc2nc(SCC(=O)N3CCOCC3)[nH]c2c1
EC50 [5]: > 53 µM (inactive)
IC50 [6]: > 47.1 µM (inactive)

CSc1cc(-c2ccco2)oc1C(=O)c1ccco1
EC50 [13]: > 260 µM (inactive)
IC50 (Protein skinhead-1): > 100 µM (inactive)

O=C1c2cc(Br)ccc2OC2C=CC=CC12 (centres undefined)
IC50 (Protein skinhead-1): 81 µM (inactive)

CCOc1ccccc1N(CC(=O)N1CCC(C(N)=O)CC1)S(=O)(=O)c1ccc(SC)cc1
EC50 [5]: > 53 µM (inactive)
IC50 [6]: > 47.1 µM (inactive)

CCc1nc2ccc(C(=O)NCc3cccs3)cn2c1N(C)Cc1nccs1
IC50 (H9c2): 12.8 µM (active)

CC(C)(C)C(=O)Nc1ccc(C(=O)N/N=C/c2ccccc2OC(=O)c2ccccc2)cc1
IC50 (H9c2): 31.5 µM (inactive)

COc1cc(C(=O)N/N=C/c2ccc(OC(=O)c3ccccc3)c(OC)c2)ccc1O
IC50 (H9c2): > 79 µM (inactive)

Cc1nc2ccccc2n1/C(=N/S(=O)(=O)c1ccc(Br)cc1)c1ccccc1
EC50 [3]: > 112 µM (not active)
EC50 [4]: > 112 µM (not active)

Reference: ChEMBL document CHEMBL1201862, “PubChem BioAssay data set” (2004)
